{"source": "patent US10660928B2", "about": "“Pharmaceutical composition containing combination extracts of Moutan Root Bark, Angelica Dahurica Root, bupleurum root or fractions thereof for prevention and treatment of neurodegenerative disorder” (UNIVERSITY-INDUSTRY COOPERATION GROUP OF KYUNG HEE …, priority 2014, dated 2020)", "key": {"[1]": {"system": "BV2, the mouse microglial cell line", "assay": "Cell survival rate (calcein) in normal microglial cells, cytotoxicity", "format": "cell-based", "conditions": "1.0 μg/ml, 4 hours", "method": "Particularly, BV2, the mouse microglial cell line, was inoculated in 1:1 DMEM (Dulbeco's Modified Eagle's Medium; Gibco, USA) supplemented with 10% FBS, followed by culture in a 37° C., 5% CO2/95% air (O2) incubator. Then, the cultured cells were transferred into a serum free medium at the density of 2.5×10^4 cells/well. The cells were treated with the Bupleurum Root 90% ethanol extract prepared in Example <1-3>, saikosaponin A, saikosaponin B2, saikosaponin B4, or saikosaponin D at the concentration of 1.0 μg/ml for 4 hours. The cells were collected and the cell survival rate was measured by using calcein. The survival rate of the cells that were increased or decreased compared with that of the normal control cells not-treated with the extract or its active component above and instead treated with DMSO was calculated and presented as percentage (%)."}, "BV2 cells [2]": {"system": "BV2 cells", "assay": "MTT assay, LPS-induced inflammatory response", "format": "cell-based, mouse", "conditions": "BV2, treatment 1.0 μg/ml, inducer LPS 100 ng/ml", "method": "Particularly, BV2 cells were cultured by the same manner as described in Experimental Example <3-1>. Then, the cultured cells were transferred into a serum free medium at the density of 1×10^5 cells/well. The cells were treated with the Bupleurum Root 90% ethanol extract prepared in Example <1-3>, saikosaponin A, saikosaponin B2, saikosaponin B4, or saikosaponin D at the concentration of 1.0 μg/ml, followed by culture for 4 hours. The cells were then treated with 100 ng/ml of lipopolysaccharide (LPS), followed by culture for 20 hours to induce inflammatory response. MTT assay was performed with the cells induced with inflammatory response by the same manner as described in Experimental Example <1-2>. The damage of mitochondria complex 1 was confirmed to see how the damage level was either increased or decreased, compared with the normal control group treated with DMSO without the extract or its active component. In the meantime, the negative control group was treated with 100 ng/ml of LPS alone to induce inflammatory response and was not treated with the extract or its active component. Then, MTT assay was performed by the same manner as described above."}, "BV2 cells [3]": {"system": "BV2 cells", "assay": "Griess method, nitric oxide in medium of LPS-induced cells", "format": "cell-based, mouse", "conditions": "BV2, treatment 1.0 μg/ml, inducer LPS 100 ng/ml", "method": "Particularly, BV2 cells were cultured by the same manner as described in Experimental Example <3-1>, and inflammatory response was induced. Then, 100 μl of the cell culture medium was obtained, to which 100 μl of Griess reagent comprising hydrochloric acid containing 5% sulfanilamide and 2% naphthylethylenediamine was added, followed by reaction in a dark room for 30 minutes. Upon completion of the reaction, OD540 was measured with an EISA microplate reader (Versamax, USA). The concentration of nitric oxide in the medium was calculated using the standard calibration curve of sodium nitrite. The normal control was not treated with the extract or the active component thereof but treated with DMSO. The negative control was treated with 100 ng/ml of LPS alone to induce inflammatory response but not treated with the extract or the active component. Then, the nitric oxide concentration reduction effect was investigated by the same manner as described above.\n(§1) Particularly, BV2 cells were cultured by the same manner as described in Experimental Example <3-1>, and inflammatory response was induced. Then, 100 μl of the cell culture medium was obtained, to which 100 μl of Griess reagent comprising hydrochloric acid containing 5% sulfanilamide and 2% naphthylethylenediamine was added, followed by reaction in a dark room for 30 minutes. Upon completion of the reaction, OD540 was measured with an EISA microplate reader (Versamax, USA). The concentration of nitric oxide in the medium was calculated using the standard calibration curve of sodium nitrite. To measure the ROS concentration, the cells were treated with 1 μM DCF-DA and 0.05 μM bisbenzimide (Hoechst 33342), followed by staining at 37° C. for 1 hour. After the staining, the fluorescence intensity of DCF-DA was measured at 485 nm/535 nm, and the fluorescence intensity of bisbenzimide was measured at 335 nm/460 nm. Based on the ratio of DCF-DA/bisbenzimide, ROS was quantified. The amount of ROS, either increased or decreased, was compared with that of the normal control not treated with the extract but treated with DMSO, and the results were presented as %. The negative control was treated with 100 ng/ml of LPS alone to induce inflammatory response but not treated with the extract or the active component thereof. Then, the nitric oxide concentration reduction effect and the ROS concentration reduction effect were investigated by the same manner as described above."}, "[4]": {"system": "inducible nitric oxide synthase (iNOS)", "assay": "RT-PCR of iNOS mRNA, LPS-induced cells", "format": "cell-based, mouse", "conditions": "BV2, treatment 1.0 μg/ml, LPS 100 ng/ml; negative control 100.00", "method": "(§2) Particularly, BV2 cells were cultured by the same manner as described in Experimental Example <3-1>, and inflammatory response was induced. Then, RT-PCR was performed with the cells by the same manner as described in Experimental Example <1-4>, followed by quantitative analysis of the expression levels of iNOS, IL-6, and NF-kB p65/ReIA genes. The normal control was not treated with the extract of the invention or the active component thereof but treated with DMSO alone. The negative control was not treated with the extract or the active component but treated with 100 ng/ml of LPS alone to induce inflammatory response. Then, the expression of the inflammatory response marker gene was confirmed by the same manner as described above."}, "interleukin-6, (IL-6)": {"system": "interleukin-6, (IL-6)", "assay": "RT-PCR of IL-6 mRNA, LPS-induced cells", "format": "cell-based, mouse", "conditions": "BV2, treatment 1.0 μg/ml, LPS 100 ng/ml; negative control 100.00", "method": "as §2"}, "NF-kB p65/ReIA": {"system": "NF-kB p65/ReIA", "assay": "RT-PCR of NF-kB p65/ReIA mRNA, LPS-induced cells", "format": "cell-based, mouse", "conditions": "BV2, treatment 1.0 μg/ml, LPS 100 ng/ml; negative control 100.00", "method": "as §2"}, "BV2 cells [5]": {"system": "BV2 cells", "assay": "DCF-DA intracellular ROS, LPS-induced cells", "format": "cell-based, mouse", "conditions": "BV2, treatment 1.0 μg/ml, inducer LPS 100 ng/ml", "method": "Particularly, BV2 cells were cultured by the same manner as described in Experimental Example <3-1>, and inflammatory response was induced. Then, the cells induced with inflammatory response were treated with 1 μM DCF-DA and 0.05 μM bisbenzimide (Hoechst 33342), followed by staining at 37° C. for 1 hour. After the staining, the fluorescence intensity of DCF-DA was measured at 485 nm/535 nm, and the fluorescence intensity of bisbenzimide was measured at 335 nm/460 nm. Based on the ratio of DCF-DA/bisbenzimide, ROS was quantified. The amount of ROS, either increased or decreased, was compared with that of the normal control not treated with the extract or the active component thereof but treated with DMSO, and the results were presented as %. The negative control was treated with 100 ng/ml of LPS alone to induce inflammatory response but not treated with the extract or the active component thereof. Then, the generation of ROS was investigated by the same manner as described above.\nas §1"}}, "data": [{"smiles": "C[C@H]1O[C@@H](O[C@H]2CC[C@@]3(C)[C@@H](CC[C@]4(C)[C@@H]3C=CC3=C5CC(C)(C)CC[C@]5(CO)[C@H](O)C[C@]34C)[C@]2(C)CO)[C@H](O)[C@@H](O[C@@H]2O[C@H](CO)[C@@H](O)[C@H](O)[C@H]2O)[C@H]1O", "note": "[saikosaponin B2, (3b,4a,16a)-16,23,28-Trihydroxyoleana-11,13(18)-dien-3-yl-6-deoxy-3-O-beta-D-glucopyranosyl-beta-D-galactopyranoside]", "values": [{"measurement": "Cell survival rate (% of control)", "setting": "[1]", "value": "102.74 ± 8.55 % of control"}, {"measurement": "MTT (% of control)", "setting": "BV2 cells [2]", "value": "88.85 ± 6.48 % of control"}, {"measurement": "NO", "setting": "BV2 cells [3]", "value": "19 ± 2.68", "unit": "µM"}, {"measurement": "iNOS mRNA (% of control)", "setting": "[4]", "value": "18.11 ± 2.39 % of control"}, {"measurement": "IL-6 mRNA (% of control)", "setting": "interleukin-6, (IL-6)", "value": "29.67 ± 2.39 % of control"}, {"measurement": "p65/ReIA mRNA (% of control)", "setting": "NF-kB p65/ReIA", "value": "50.18 ± 2.67 % of control"}, {"measurement": "DCF-DA-ROS (% of control)", "setting": "BV2 cells [5]", "value": "214.22 ± 1.87 % of control"}]}, {"smiles": "CO[C@@H]1C=C2[C@@H]3CC(C)(C)CC[C@]3(CO)[C@H](O)C[C@@]2(C)[C@]2(C)CC[C@H]3[C@](C)(CO)[C@@H](O[C@@H]4O[C@H](C)[C@H](O)[C@H](O[C@@H]5O[C@H](CO)[C@@H](O)[C@H](O)[C@H]5O)[C@H]4O)CC[C@]3(C)[C@@H]12", "note": "[saikosaponin B4, (3β,11α,16α)-16,23,28-Trihydroxy-11-methoxyolean-12-en-3-yl-6-deoxy-3-O-β-D-glucopyranosyl-β-D-galactopyranoside]", "values": [{"measurement": "Cell survival rate (% of control)", "setting": "[1]", "value": "97.99 ± 2.86 % of control"}, {"measurement": "MTT (% of control)", "setting": "BV2 cells [2]", "value": "87.12 ± 2.56 % of control"}, {"measurement": "NO", "setting": "BV2 cells [3]", "value": "17.2 ± 2.11", "unit": "µM"}, {"measurement": "iNOS mRNA (% of control)", "setting": "[4]", "value": "26.06 ± 3.27 % of control"}, {"measurement": "IL-6 mRNA (% of control)", "setting": "interleukin-6, (IL-6)", "value": "28.53 ± 1.92 % of control"}, {"measurement": "p65/ReIA mRNA (% of control)", "setting": "NF-kB p65/ReIA", "value": "53.70 ± 4.72 % of control"}, {"measurement": "DCF-DA-ROS (% of control)", "setting": "BV2 cells [5]", "value": "223.26 ± 2.86 % of control"}]}, {"smiles": "C[C@H]1O[C@@H](O[C@H]2CC[C@@]3(C)[C@@H](CC[C@]4(C)[C@@H]3C=C[C@]35OC[C@@]6(CCC(C)(C)C[C@H]63)[C@H](O)C[C@]54C)[C@]2(C)CO)[C@H](O)[C@@H](O[C@@H]2O[C@H](CO)[C@@H](O)[C@H](O)[C@H]2O)[C@H]1O", "note": "[saikosaponin D, (3b,4a,16a)-13,28-Epoxy-16,23-dihydroxyolean-11-en-3-yl 6-deoxy-3-O-beta-D-glucopyranosyl beta-D-galactopyranoside]", "values": [{"measurement": "Cell survival rate (% of control)", "setting": "[1]", "value": "97.45 ± 3.99 % of control"}, {"measurement": "MTT (% of control)", "setting": "BV2 cells [2]", "value": "86.73 ± 1.25 % of control"}, {"measurement": "NO", "setting": "BV2 cells [3]", "value": "18.1 ± 2.93", "unit": "µM"}, {"measurement": "iNOS mRNA (% of control)", "setting": "[4]", "value": "21.23 ± 1.99 % of control"}, {"measurement": "IL-6 mRNA (% of control)", "setting": "interleukin-6, (IL-6)", "value": "26.58 ± 1.75 % of control"}, {"measurement": "p65/ReIA mRNA (% of control)", "setting": "NF-kB p65/ReIA", "value": "49.80 ± 3.54 % of control"}, {"measurement": "DCF-DA-ROS (% of control)", "setting": "BV2 cells [5]", "value": "218.61 ± 2.71 % of control"}]}]}
